Laboratory results taken from ChEMBL document CHEMBL3259781 (J Med Chem, 2014).
In brackets after ≈: the same amount, converted by molar mass. Several values for one entry are separate records, joined by “and”; a condition that tells them apart may be missing. Equal values may be shown once.

Key:
Homo sapiens = organism: Homo sapiens; assay: Selectivity ratio of Ki for human recombinant adenosine A1 receptor to Ki for human recombinant adenosine receptor A2a
[1] = AUC in rat at 3 mg/kg, po; assay type: ADME, organism-based; parameters: dose 3 mg/kg, route oral; conditions: plasma
Rattus norvegicus [2] = assay: Anticataleptic activity in rat assessed as inhibition at 1 mg/kg, po after 1 hr; assay type: functional
Rattus norvegicus [3] = assay: Anticataleptic activity in rat assessed as inhibition at 1 mg/kg, po after 4 hrs; assay type: functional
[4] = Ratio of drug level from brain to plasma in rat; assay type: ADME; conditions: read-out: BPR
Rattus norvegicus [5] = organism: Rattus norvegicus; assay: Anticataleptic activity in rat assessed as minimum efficacious dose after 1 hr; assay type: functional; conditions: read-out: MED
Rattus norvegicus [6] = organism: Rattus norvegicus; assay: Anticataleptic activity in rat assessed as minimum efficacious dose after 4 hrs; assay type: functional; conditions: read-out: MED
Adenosine receptor A2b = biological target: T1, Adenosine receptor A2b (Homo sapiens, UniProt P29275)
T1 sequence (P29275 whole entry): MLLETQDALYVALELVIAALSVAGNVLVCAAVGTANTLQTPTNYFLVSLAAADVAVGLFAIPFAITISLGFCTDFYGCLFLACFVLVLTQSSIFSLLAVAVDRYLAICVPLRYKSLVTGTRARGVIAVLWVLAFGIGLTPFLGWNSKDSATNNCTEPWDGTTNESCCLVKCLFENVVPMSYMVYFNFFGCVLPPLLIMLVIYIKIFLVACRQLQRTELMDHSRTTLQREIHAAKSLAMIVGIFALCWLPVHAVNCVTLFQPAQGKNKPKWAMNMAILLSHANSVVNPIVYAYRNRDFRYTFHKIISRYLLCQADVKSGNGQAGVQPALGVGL

Adenosine receptor A2a [7] = biological target: T2, Adenosine receptor A2a (Homo sapiens, UniProt P29274)
T2 sequence (P29274 whole entry): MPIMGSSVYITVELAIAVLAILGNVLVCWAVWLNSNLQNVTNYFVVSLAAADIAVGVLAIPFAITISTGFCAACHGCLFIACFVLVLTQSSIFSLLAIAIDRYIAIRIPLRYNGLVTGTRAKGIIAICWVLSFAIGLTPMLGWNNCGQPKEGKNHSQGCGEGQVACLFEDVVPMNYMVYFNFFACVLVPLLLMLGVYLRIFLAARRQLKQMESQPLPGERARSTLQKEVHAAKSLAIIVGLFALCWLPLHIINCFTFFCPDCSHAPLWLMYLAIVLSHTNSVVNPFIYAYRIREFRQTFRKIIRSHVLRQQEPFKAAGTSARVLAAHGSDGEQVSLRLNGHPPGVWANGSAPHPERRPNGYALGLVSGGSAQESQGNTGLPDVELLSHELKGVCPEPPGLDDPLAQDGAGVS

Adenosine receptor A1 = biological target: T3, Adenosine receptor A1 (Homo sapiens, UniProt P30542)
T3 sequence (P30542 whole entry): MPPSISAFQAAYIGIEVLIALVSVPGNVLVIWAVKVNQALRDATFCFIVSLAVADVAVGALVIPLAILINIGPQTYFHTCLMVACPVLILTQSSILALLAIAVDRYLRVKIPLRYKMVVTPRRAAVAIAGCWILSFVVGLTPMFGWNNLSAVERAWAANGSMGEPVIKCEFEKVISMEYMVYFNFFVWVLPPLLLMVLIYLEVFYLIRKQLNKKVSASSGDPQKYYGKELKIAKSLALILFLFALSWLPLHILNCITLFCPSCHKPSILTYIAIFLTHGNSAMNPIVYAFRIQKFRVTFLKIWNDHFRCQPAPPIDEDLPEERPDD

Adenosine receptor A3 [8] = biological target: T4, Adenosine receptor A3 (Homo sapiens, UniProt P0DMS8)
T4 sequence (P0DMS8 whole entry): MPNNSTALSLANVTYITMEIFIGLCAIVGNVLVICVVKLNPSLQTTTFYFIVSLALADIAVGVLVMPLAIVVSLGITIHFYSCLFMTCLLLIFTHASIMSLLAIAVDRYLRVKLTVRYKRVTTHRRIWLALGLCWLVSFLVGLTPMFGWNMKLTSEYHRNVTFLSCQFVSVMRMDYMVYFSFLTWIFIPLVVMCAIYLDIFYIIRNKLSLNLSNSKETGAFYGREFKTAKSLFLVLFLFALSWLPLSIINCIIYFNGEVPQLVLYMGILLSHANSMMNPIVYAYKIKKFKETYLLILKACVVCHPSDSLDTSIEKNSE

[9] = Ratio of drug level from brain to plasma in iv dosed rat after 0.5 hrs; assay type: ADME, organism-based; conditions: read-out: BPR
Rattus norvegicus [10] = organism: Rattus norvegicus; assay: Anticataleptic activity in rat assessed as inhibition of haloperidol-induced catalepsy after 1 hr; assay type: functional
Rattus norvegicus [11] = organism: Rattus norvegicus; assay: Anticataleptic activity in rat assessed as inhibition of haloperidol-induced catalepsy after 2 hrs; assay type: functional
Rattus norvegicus [12] = organism: Rattus norvegicus; assay: Selectivity ratio of Ki for rat striatal adenosine A1 receptor to Ki for rat recombinant adenosine receptor A2a
Rattus norvegicus [13] = assay: Anticataleptic activity in rat assessed as inhibition of haloperidol-induced catalepsy at 3 mg/kg, po after 30 mins; assay type: functional; conditions: 0.5 h
[14] = Solubility of the compound at pH 7.4; assay type: physicochemical; conditions: buffer
Mus musculus = assay: Anticataleptic activity in mouse assessed as inhibition of haloperidol-induced catalepsy at 10 mg/kg, po; assay type: functional
Plasma = assay: Drug level in rat plasma measured per ml at 10 mg/kg, po; assay type: ADME, organism-based; parameters: dose 10 mg/kg, route oral; conditions: in vivo
Brain = assay: Drug level in rat brain measured per gram at 10 mg/kg, po; assay type: ADME, organism-based; parameters: dose 10 mg/kg, route oral; conditions: in vivo
Adenosine receptor A2a [15] = biological target: T2, Adenosine receptor A2a; remark: listed apart in the source
Rattus norvegicus [16] = organism: Rattus norvegicus; assay: Systemic vasodilation in rat; assay type: functional
Adenosine receptor A3 [17] = biological target: T5, Adenosine receptor A3 (Rattus norvegicus, UniProt P28647); assay: Inhibition of rat recombinant adenosine A3 receptor
T5 sequence (P28647 whole entry): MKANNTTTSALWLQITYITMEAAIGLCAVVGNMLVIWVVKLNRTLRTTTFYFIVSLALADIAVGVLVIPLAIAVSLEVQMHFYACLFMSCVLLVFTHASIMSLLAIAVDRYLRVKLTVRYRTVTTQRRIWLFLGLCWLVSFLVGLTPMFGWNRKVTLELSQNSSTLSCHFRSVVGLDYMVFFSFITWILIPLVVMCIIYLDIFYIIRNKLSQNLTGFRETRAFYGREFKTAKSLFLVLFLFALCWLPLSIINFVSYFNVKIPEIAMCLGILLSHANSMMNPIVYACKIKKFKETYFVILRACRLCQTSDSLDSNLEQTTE

Adenosine receptor A2a [18] = biological target: T6, Adenosine receptor A2a (Rattus norvegicus, UniProt P30543)
T6 sequence (P30543 whole entry): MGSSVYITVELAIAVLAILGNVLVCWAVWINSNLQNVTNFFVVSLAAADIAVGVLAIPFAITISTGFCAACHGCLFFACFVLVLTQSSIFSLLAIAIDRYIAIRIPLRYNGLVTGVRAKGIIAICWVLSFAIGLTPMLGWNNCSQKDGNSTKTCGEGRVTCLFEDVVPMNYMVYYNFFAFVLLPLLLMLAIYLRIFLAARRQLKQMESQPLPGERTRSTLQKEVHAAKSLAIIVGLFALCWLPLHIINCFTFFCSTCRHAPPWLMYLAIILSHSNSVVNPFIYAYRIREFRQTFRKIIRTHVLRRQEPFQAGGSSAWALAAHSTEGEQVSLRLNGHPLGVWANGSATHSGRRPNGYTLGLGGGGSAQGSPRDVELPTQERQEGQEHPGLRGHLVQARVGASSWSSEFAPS

Adenosine receptor A2a [19] = biological target: T6, Adenosine receptor A2a; assay: Binding affinity to adenosine receptor A2a in rat striatum; assay type: tissue-based
[20] = Plasma clearance in rat; assay type: ADME, organism-based
[21] = Half life in rat; assay type: ADME, organism-based; conditions: in vivo
[22] = Half life in dog; assay type: ADME, organism-based, Canis lupus familiaris; conditions: in vivo
[23] = Plasma clearance in dog; assay type: ADME, organism-based, Canis lupus familiaris
[24] = Volume of distribution in rat; assay type: ADME, organism-based; conditions: in vivo
[25] = Volume of distribution in dog; assay type: ADME, organism-based, Canis lupus familiaris; conditions: in vivo

Compound: COCCOc1ccc(N2CCN(CCn3ncc4c3nc(N)n3nc(-c5ccco5)nc43)CC2)cc1 [PRELADENANT]
- Ratio Ki (Homo sapiens): > 1660 and 1340
- AUC [1]: 1560 ng·h/mL
- inhibition (INH) (Rattus norvegicus [2]; 1 mg/kg): 77%
- inhibition in vivo at 1 mg/kg (Rattus norvegicus [2]; Rattus norvegicus, po, 1 h): 75%
- inhibition (INH) (Rattus norvegicus [3]; 1 mg/kg): 70%
- inhibition in vivo at 1 mg/kg (Rattus norvegicus [3]; Rattus norvegicus, po, 4 h): 80%
- Kp [4]: 1
- minimal effective dose (Rattus norvegicus [5]): 0.3 mg/kg
- minimal effective dose (Rattus norvegicus [6]): 0.3 mg/kg
- Ki (Adenosine receptor A2b): > 1700 nM
- Ki (Adenosine receptor A2a [7]): 0.6 nM
- Ki (Adenosine receptor A1): > 996 nM
- Ki (Adenosine receptor A3 [8]): > 1000 nM

Compound: Cc1cc(-c2nnc(N)nc2-c2ccccc2)cc(C(F)(F)F)n1
- Kp at 0.5 h [9]: 3.2
- ED50 (Rattus norvegicus [10]): 0.2 mg/kg
- ED50 (Rattus norvegicus [11]): 0.2 mg/kg
- Ki (Adenosine receptor A1): 31 nM

Compound: Nc1nc(N2CCN3CCC[C@@H]3C2)cc2nc(-c3ccco3)nn12
- Ratio Ki (Rattus norvegicus [12]): 17
- inhibition in vivo at 3 mg/kg (Rattus norvegicus [13]): > 50%

Compound: COC1CCN(c2cccc(-c3cc(NC(C)=O)nc(-n4nc(C)cc4C)n3)n2)CC1
- Ratio Ki (Homo sapiens): 193
- solubility [14]: 30 µg/mL (≈ 71.2 µM)
- inhibition in vivo at 10 mg/kg (Mus musculus): 88%
- Cp (Plasma): 150 ng/mL
- Drug uptake (Brain): 560 ng/g
- Ki (Adenosine receptor A2a [7]): 0.4 nM
- Ki (Adenosine receptor A1): 77.2 nM

Compound: CCn1nnc([C@H]2O[C@@H](n3cnc4c(N)nc(N[C@H](CO)Cc5ccccc5)nc43)[C@H](O)[C@@H]2O)n1 [GW-328267]
- EC50 (Adenosine receptor A2a [15]): 9 nM

Compound: Nc1nc(N/N=C/C2CCCCC2)nc2c1ncn2[C@@H]1O[C@H](CO)[C@@H](O)[C@H]1O [BINODENOSON]
- ED50 (Rattus norvegicus [16]): 0.31 mg

Compound: C#CCn1c(=O)c2c(nc(/C=C/c3cccc(OC)c3)n2C)n(CCCO)c1=O
- Ki (Adenosine receptor A3 [17]): > 10000 nM
- Ki (Adenosine receptor A2b): 2900 nM
- Ki (Adenosine receptor A2a [18]): 5 nM

Compound: Nc1nc2c(cnn2CCc2ccccc2)c2nc(-c3ccco3)nn12 [SCH-58261]
- Kd (Adenosine receptor A2a [19]): 0.7 nM
- Ki (Adenosine receptor A3 [8]): 1200 nM

Compound: COc1ccc(N2CCOCC2)c2sc(NC(=O)N3CCC(C)(O)CC3)nc12 [TOZADENANT]
- clearance [20]: 11 mL/min/kg
- half-life [21]: 4 h
- half-life [22]: 2.2 h
- clearance [23]: 8 mL/min/kg
- Vd [24]: 1.4 L/kg
- Vd [25]: 1.2 L/kg
- Ki (Adenosine receptor A1): 1350 nM
